Reference: PubChem BioAssay (NCI)
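The concentration for 50% growth inhibition is given as GI50. TGI is the concentration that stops growth completely.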

Columns and labels:
Assay in all cases: NCI anticancer screen, dose series, 384-well format
OVCAR-4 ovarian = system: OVCAR-4 ovarian
M14 melanoma = system: M14 melanoma
HCT-15 colon = system: HCT-15 colon
HOP-62 NSCLC = system: HOP-62 NSCLC
LOX IMVI melanoma = system: LOX IMVI melanoma
IGROV1 ovarian = system: IGROV1 ovarian
OVCAR-3 ovarian = system: OVCAR-3 ovarian
SN12C renal = system: SN12C renal
RPMI-8226 leukemia = system: RPMI-8226 leukemia
NCI-H460 NSCLC = system: NCI-H460 NSCLC
UACC-62 melanoma = system: UACC-62 melanoma
SK-MEL-5 melanoma = system: SK-MEL-5 melanoma
SNB-19 CNS = system: SNB-19 CNS
SR leukemia = system: SR leukemia
UACC-257 melanoma = system: UACC-257 melanoma
NCI-H226 lung = system: NCI-H226 lung
DU-145 prostate = system: DU-145 prostate
MOLT-4 leukemia = system: MOLT-4 leukemia
EKVX NSCLC = system: EKVX NSCLC
NCI-H322M lung = system: NCI-H322M lung
U251 glioblastoma = system: U251 glioblastoma
MDA-MB-435 melanoma = system: MDA-MB-435 melanoma
A549 NSCLC = system: A549 NSCLC
HCT-116 colon = system: HCT-116 colon
SF-268 CNS = system: SF-268 CNS
BT-549 breast = system: BT-549 breast
ACHN renal = system: ACHN renal
TK-10 renal = system: TK-10 renal
SK-OV-3 ovarian = system: SK-OV-3 ovarian
A498 renal = system: A498 renal
HL-60(TB) leukemia = system: HL-60(TB) leukemia
SNB-75 CNS = system: SNB-75 CNS
NCI-H23 lung = system: NCI-H23 lung
SK-MEL-28 melanoma = system: SK-MEL-28 melanoma
MALME-3M melanoma = system: MALME-3M melanoma
CAKI-1 renal = system: CAKI-1 renal
SF-539 CNS = system: SF-539 CNS
HS 578T breast = system: HS 578T breast
NCI-H522 lung = system: NCI-H522 lung
MDA-MB-231 breast = system: MDA-MB-231 breast
HT29 colon = system: HT29 colon
OVCAR-5 ovarian = system: OVCAR-5 ovarian
PC-3 prostate = system: PC-3 prostate
HCC-2998 colon = system: HCC-2998 colon
HOP-92 NSCLC = system: HOP-92 NSCLC
COLO 205 colon = system: COLO 205 colon
MCF7 breast = system: MCF7 breast
KM12 colon = system: KM12 colon
OVCAR-8 ovarian = system: OVCAR-8 ovarian

Nc1nc(Nc2ccc(C3CCC(N4CCOCC4)CC3)cc2)nn1-c1ccccn1 (stereo not drawn)
GI50 (OVCAR-4 ovarian): 7.22 µM | TGI (OVCAR-4 ovarian): 27.8 µM | GI50 (M14 melanoma): 2260 nM | TGI (M14 melanoma): 3.89 µM | GI50 (HCT-15 colon): 2010 nM | TGI (HCT-15 colon): 4.14 µM | GI50 (HOP-62 NSCLC): 2580 nM | TGI (HOP-62 NSCLC): 6.7 µM | GI50 (LOX IMVI melanoma): 2040 nM | TGI (LOX IMVI melanoma): 3.63 µM | GI50 (IGROV1 ovarian): 3.06 µM | TGI (IGROV1 ovarian): 11.6 µM | GI50 (OVCAR-3 ovarian): 3.13 µM | TGI (OVCAR-3 ovarian): 7.21 µM | GI50 (SN12C renal): 1050 nM | TGI (SN12C renal): 3.84 µM | GI50 (RPMI-8226 leukemia): 2300 nM | TGI (RPMI-8226 leukemia): 3.78 µM | GI50 (NCI-H460 NSCLC): 3.17 µM | TGI (NCI-H460 NSCLC): 10.7 µM | GI50 (UACC-62 melanoma): 2030 nM | TGI (UACC-62 melanoma): 4.56 µM | GI50 (SK-MEL-5 melanoma): 1700 nM | TGI (SK-MEL-5 melanoma): 3.23 µM | GI50 (SNB-19 CNS): 3.68 µM | TGI (SNB-19 CNS): 16.5 µM | GI50 (SR leukemia): 255 nM | TGI (SR leukemia): 559 nM | GI50 (UACC-257 melanoma): 1830 nM | TGI (UACC-257 melanoma): 3.31 µM | GI50 (NCI-H226 lung): 2590 nM | TGI (NCI-H226 lung): 6.49 µM | GI50 (DU-145 prostate): 3.08 µM | TGI (DU-145 prostate): 8.5 µM | GI50 (MOLT-4 leukemia): 1760 nM | TGI (MOLT-4 leukemia): 3.19 µM | GI50 (EKVX NSCLC): 4.45 µM | TGI (EKVX NSCLC): > 100 µM | GI50 (NCI-H322M lung): 4.03 µM | TGI (NCI-H322M lung): 15 µM | GI50 (U251 glioblastoma): 2020 nM | TGI (U251 glioblastoma): 4.06 µM | GI50 (MDA-MB-435 melanoma): 2250 nM | TGI (MDA-MB-435 melanoma): 6.2 µM | GI50 (A549 NSCLC): 3.49 µM | TGI (A549 NSCLC): > 100 µM | GI50 (HCT-116 colon): 2420 nM | TGI (HCT-116 colon): 6 µM | GI50 (SF-268 CNS): 3.37 µM | TGI (SF-268 CNS): 13.2 µM | GI50 (BT-549 breast): 1670 nM | TGI (BT-549 breast): 3.25 µM | GI50 (ACHN renal): 2840 nM | TGI (ACHN renal): 7.6 µM | GI50 (TK-10 renal): 5.32 µM | TGI (TK-10 renal): 24.1 µM | GI50 (SK-OV-3 ovarian): 3.33 µM | TGI (SK-OV-3 ovarian): > 100 µM | GI50 (A498 renal): 2570 nM | TGI (A498 renal): 5.75 µM | GI50 (HL-60(TB) leukemia): 1350 nM | TGI (HL-60(TB) leukemia): 2670 nM | GI50 (SNB-75 CNS): 2000 nM | TGI (SNB-75 CNS): 3.94 µM | GI50 (NCI-H23 lung): 2770 nM | TGI (NCI-H23 lung): > 100 µM | GI50 (SK-MEL-28 melanoma): 1810 nM | TGI (SK-MEL-28 melanoma): 3.34 µM | GI50 (MALME-3M melanoma): 1860 nM | TGI (MALME-3M melanoma): 4.1 µM | GI50 (CAKI-1 renal): 3.08 µM | TGI (CAKI-1 renal): > 100 µM | GI50 (SF-539 CNS): 1430 nM | TGI (SF-539 CNS): 3.02 µM | GI50 (HS 578T breast): 1890 nM | TGI (HS 578T breast): 3.54 µM | GI50 (NCI-H522 lung): 3.11 µM | TGI (NCI-H522 lung): 9.08 µM | GI50 (MDA-MB-231 breast): 4.56 µM | TGI (MDA-MB-231 breast): > 100 µM | GI50 (HT29 colon): 1820 nM | TGI (HT29 colon): 3.59 µM | GI50 (OVCAR-5 ovarian): 2440 nM | TGI (OVCAR-5 ovarian): 5.19 µM | GI50 (PC-3 prostate): 3.57 µM | TGI (PC-3 prostate): 11.9 µM | GI50 (HCC-2998 colon): 2970 nM | TGI (HCC-2998 colon): 6.32 µM | GI50 (HOP-92 NSCLC): 4.97 µM | TGI (HOP-92 NSCLC): 20.4 µM | GI50 (COLO 205 colon): 2890 nM | TGI (COLO 205 colon): 5.83 µM | GI50 (MCF7 breast): 3.43 µM | TGI (MCF7 breast): > 100 µM | GI50 (KM12 colon): 291 nM | TGI (KM12 colon): > 100 µM | GI50 (OVCAR-8 ovarian): 5.06 µM | TGI (OVCAR-8 ovarian): > 100 µM
